Earlier results on three substances are cited in PMC2912417 (Biochemistry, 2010).

Where two headings read alike, the source gives them in different places.

Data set [1] concerns Aβ42-induced toxicity.
The conditions of data set [2]: peptide alone.

LMVGGVV [Aβ(34–40)]: the “Inhibition of Aβ42-induced toxicity” value in data set [1] (cell-viability screen under similar conditions) is “inactive”.
As to KGAIIGLMVGGVVIA [Aβ(28–42)], the “Toxicity of the peptide itself” value in data set [1] (cell-viability screen) is “highly toxic itself”.
In the case of IGLMVGGVVIA [Aβ(32–42)], the “Toxicity of the peptide itself” value in data set [1] is “slightly toxic itself”. Besides, in data set [2], the “Aggregation / fibril formation of the peptide itself” value is “predominantly amorphous, rather than fibrillar, aggregates”.
